From patent publication US20080004272A1, “Compositions and methods for modulating gated ion channels” (PainCeptor Pharma Corporation, priority 2006, published 2008)

Key:
[1] = molecular target: T1, ASIC1a (Homo sapiens, UniProt P78348); experiment: Calcium imaging of MES-induced calcium response (FLIPR); type: cell-based; set-up: host or cells: HEK293; conditions: ASIC1a expressing HEK293 cells, MES-induced calcium response; read-out: IC50 (FLIPR)
T1 sequence (P78348 1-528): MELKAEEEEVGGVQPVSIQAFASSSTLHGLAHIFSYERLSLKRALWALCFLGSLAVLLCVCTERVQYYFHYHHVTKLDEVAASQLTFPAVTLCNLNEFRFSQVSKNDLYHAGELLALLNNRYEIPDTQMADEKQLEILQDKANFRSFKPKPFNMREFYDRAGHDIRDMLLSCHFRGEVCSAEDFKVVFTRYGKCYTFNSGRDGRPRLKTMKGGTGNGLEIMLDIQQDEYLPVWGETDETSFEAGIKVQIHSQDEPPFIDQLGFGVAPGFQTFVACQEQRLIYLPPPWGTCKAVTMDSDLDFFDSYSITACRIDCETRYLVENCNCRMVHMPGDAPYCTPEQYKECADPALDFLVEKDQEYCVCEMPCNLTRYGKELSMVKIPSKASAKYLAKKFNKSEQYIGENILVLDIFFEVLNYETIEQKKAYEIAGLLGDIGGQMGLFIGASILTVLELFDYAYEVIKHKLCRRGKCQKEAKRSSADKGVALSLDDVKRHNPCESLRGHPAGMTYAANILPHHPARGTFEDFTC
Protocol: […] Confluency of cells should be 80-90% on day of plating. Cells are rinsed with 10 ml of PBS and cells are re-suspended by addition of culture medium and trituration with a 25 ml pipette.
The cells are seeded at a density of approximately 1×10^6 cells/ml (100 μl/well) in black-walled, clear bottom, 96-well plates pre-treated with 10 mg/l poly-D-lysin (75 μl/well for ≧30 min). Plated cells are allowed to proliferate for 24 h before loading with dye.
Fluo-4/AM (1 mg, Molecular Probes) is dissolved in 912 μl DMSO. The Fluo-4/AM stock solution (1 mM) is diluted with culture medium to a final concentration of 2 μM (loading solution).
The culture medium is aspirated from the wells, and 50 μl of the Fluo-4/AM loading solution is added to each well. The cells are incubated at 37° C. for 30 min.
Following the second wash, 100 μl modified Assay Buffer is added to each well and the fluorescence is measured in FLIPR™ or FlexStation™ (Molecular Devices, USA), or any other suitable equipment known to the skilled in the art.
Temperature: Room temperature (20-22° C.)
First addition: 50 μl test solution at a rate of 30 μl/sec and a starting height of […]
Second addition: 50 μl MES solution (20 mM, 5 mM final concentration) at a rate of 35 μl/sec and a starting height of 150 μl.
Reading intervals: pre-incubation−10 sec×7 and 3 sec×3 antagonist phase−3 sec×7 and 10 sec×12
Addition plates (compound test plate and MES plate) are placed on the right and left positions in the FLIPR tray, respectively. Cell plates are placed in the middle position and the ASIC1a program is effectuated. FLIPR will then take the appropriate measurements in accordance with the interval settings above. Fluorescence obtained after stimulation is corrected for the mean basal fluorescence (in modified Assay Buffer).
The MES-induced peak calcium response, in the presence of test substance, is expressed relatively to the MES response alone. Test substances that block the MES-induced calcium response are re-tested in triplicates.

[2] = molecular target: T1, ASIC1a; experiment: Two-electrode voltage clamp in Xenopus laevis oocytes (Xo), acid-induced currents; type: cell-based; set-up: expressed in transfected cells; host or cells: Xenopus laevis oocytes (nuclear microinjection of expression vector such as pcDNA3); conditions: Xenopus oocytes; for inhibition at 50 µM: read-out: % inh. at 50 μM (Xo)
Protocol: Two-electrode voltage clamp electrophysiological assays in Xenopus laevis oocytes expressing gated ion channels are performed as follows:
Oocytes are surgically removed from adult Xenopus laevis and treated for 2 h at room temperature with 1 mg/ml type I collagenase (Sigma) in Barth's solution under mild agitation. Selected oocytes at stage IV-V are defolliculated manually before nuclear microinjection of 2.5-5 ng of a suitable expression vector, such as pcDNA3, comprising the nucleotide sequence encoding a gated ion channel subunit protein. In such an experiment, the oocytes express homomultimeric proton-gated ion channels on their surface. In an alternate experiment, one, two, three or more vectors comprising the coding sequences for distinct gated ion channel subunits are co-injected in the oocyte nuclei. In the latter case, oocytes express heteromultimeric proton-gated ion channels. For example, ASIC2a and/or ASIC3 subunits in pcDNA3 vector are co-injected at a 1:1 cDNA ratio. After 2-4 days of expression at 19° C. in Barth's solution containing […] gentamicin and 1.8 mM CaCl2, gated ion channels are activated by applying an acidic solution (pH<7) and currents are recorded in a two electrode voltage-clamp configuration, using an OC-725B amplifier (Warner Instruments). Currents are acquired and digitized at 500 Hz on an Apple Imac G3 computer with an A/D NB-MIO-16XL interface (National Instruments) and recorded traces are post-filtered at 100 Hz in Axograph (Axon Instruments) (Neher, E. and Sakmann, B. (1976) Nature 260:799-802). Once impaled with the microelectrodes, oocytes are continuously superfused at 10-12 ml/min with a modified Ringer's solution containing 97 mM NaCl, 2 mM KCl, 1.8 mM CaCl2, and 10 mM HEPES brought to pH 7.4 with NaOH (Control Ringer). Test Ringer solution is prepared by replacing HEPES with MES and adjusting the pH to the desired acidic value. Compounds of the present invention are prepared in both the Control and Test Ringer solutions and applied to oocytes at room temperature through a computer-controlled switching valve system. Osmolarity of all solutions is adjusted to 235 mOsm with choline chloride. Similarly, recordings can also be acquired in an automated multichannel oocytes system as the OpusExpress™ (Molecular Devices, Sunnyvale, USA).
FIGS. 1A and 2A illustrate the inhibitory effects of Compounds 203 and 206 on acid-induced activation of recombinant homomeric hASIC1a channels.

Compound | IC50 [1] [µM] | inhibition at 50 µM [2] [%] | IC50 ([2]; table value, read-out: IC50 (Xo)) [µM]
COc1ccc(F)cc1-c1cc2c(c3c1CCN(C)C3)NC(=O)/C2=N\O[C@H]1O[C@@H](CO)[C@H](O)[C@@H](O)[C@@H]1O [Compound 20] | 20 to 30 | < 25 | 
CO/N=C1/C(=O)Nc2c1cc(-c1cc(F)ccc1OC)c1c2CN(C)CC1 [Compound 24] | 20 to 30 | 40 to 60 | 
COc1ccc(C=O)cc1-c1cc2c(c3c1CCN(C)C3)NC(=O)/C2=N/O [Compound 30] | > 70 | 40 to 60 | 
CN1CCc2c(-c3ccccc3)cc3c(c2C1)NC(=O)C31OCCO1 [Compound 76] | 20 to 40 | < 25 | 
CN1CCc2c(-c3ccccc3)cc3c(c2C1)NCC31OCCO1 [Compound 77] | > 70 | < 25 | 
CN1CCc2c(-c3ccccc3)cc3cc[nH]c3c2C1 [Compound 78] | > 70 | < 25 | 
CN1CCc2c(-c3ccccc3)cc3c(c2C1)NC(=O)C3O (centres unmarked) [Compound 79] | 20 to 40 | < 25 | 
CN1CCc2c(-c3ccccc3)cc3c(c2C1)C(=O)N(N)C3=O [Compound 80] | > 70 | < 25 | 
CN1CCc2c(-c3ccccc3)cc3c(c2C1)NC(=O)C3 [Compound 81] | > 70 | 20 to 40 | 
CN1CCc2c(-c3ccccc3)cc3c(c2C1)NC(=O)/C3=C/c1ccccc1C(=O)O [Compound 82] | > 70 | < 25 | 
CN1CCc2c(-c3ccccc3)cc3c(c2C1)NC(=O)/C3=C/c1ccc(C(=O)O)cc1 [Compound 83] | > 70 | < 25 | 
CN1CCc2c(-c3ccccc3)cc3c(c2C1)NC(=O)/C3=C/c1cccc(C(=O)O)c1 [Compound 84] | > 70 | < 25 | 
CN1CCc2c(-c3ccccc3)cc3c(c2C1)NC(=O)/C3=C/c1cccc(O)c1 [Compound 85] | > 70 | < 25 | 
CN1CCc2c(-c3ccccc3)cc3c(c2C1)NC(=O)/C3=C/c1ccccc1O [Compound 86] | > 70 | < 25 | 
CN1CCc2c(-c3ccccc3)cc3c(c2C1)NC(=O)/C3=C/c1ccccc1 [Compound 87] | > 70 | < 25 | 
CN1CCc2c(-c3ccccc3)cc3c(c2C1)NC(=O)/C3=C/c1ccc(O)cc1 [Compound 88] | > 70 | < 25 | 
C/C=C1/C(=O)Nc2c1cc(-c1ccccc1)c1c2CN(C)CC1 [Compound 89] | > 70 | < 25 | 

Compound | IC50 [1] [µM] | inhibition at 50 µM [2] [%] | IC50 ([2]; table value, read-out: IC50 (Xo)) [µM]
CN1CCc2c(-c3ccccc3)cc3c(c2C1)NC(=O)/C3=C/c1ccccn1 [Compound 90] | > 70 | < 25 | 
CN1CCc2c(-c3ccccc3)cc3c(c2C1)NC(=O)/C3=C/C(=O)O [Compound 91] | > 70 | < 25 | 
CCOC(=O)/C=C1/C(=O)Nc2c1cc(-c1ccccc1)c1c2CN(C)CC1 [Compound 92] | > 70 | < 25 | 
CN1CCc2c(-c3ccccc3)cc3c(c2C1)NC(=O)/C3=C1\CCCN1C [Compound 93] | > 70 | < 25 | 
CN1CCc2c(-c3ccccc3)cc3c(O)cc(=O)[nH]c3c2C1 [Compound 94] | > 70 | < 25 | 
CCN(CC)C(=O)c1cc(-c2cc(F)ccc2OC)cc(C)c1NC(=O)N(C)C [Compound 191, 4-(3,3-Dimethyl-ureido)-5′-fluoro-2′-methoxy-5-methyl-biphenyl-3-carboxylic acid diethylamide] |  | < 25 | 
CCN(CC)C(=O)c1cc(-c2cc(F)ccc2OC)cc(C)c1NC(=O)N1CCNC1=O [Compound 192, 2-Oxo-imidazolidine-1-carboxylic acid (5-diethylcarbamoyl-5′-fluoro-2′-methoxy-3-methyl-biphenyl-4-yl)-amide] |  | < 25 | 
CCN(CC)C(=O)c1cc(-c2cc(F)ccc2OC)cc(C)c1NC(=O)N1CCN(C(C)C)CC1 [Compound 193, 4-Isopropyl-piperazine-1-carboxylic acid (5-diethylcarbamoyl-5′-fluoro-2′-methoxy-3-methyl-biphenyl-4-yl)-amide] |  | < 25 | 
COc1ccc(F)cc1-c1cc(C#N)c(N(C(C)=O)C(C)=O)c2c1CCN(C)C2 [Compound 194, N-Acetyl-N-[7-cyano-5-(5-fluoro-2-methoxy-phenyl)-2-methyl-1,2,3,4-tetrahydro-isoquinolin-8-yl]-acetamide] |  | < 25 | 
COc1ccc(F)cc1-c1cc(C#N)c(NC(C)=O)c2c1CCN(C)C2 [Compound 195, N-[7-Cyano-5-(5-fluoro-2-methoxy-phenyl)-2-methyl-1,2,3,4-tetrahydro-isoquinolin-8-yl]-acetamide] |  | 25 to 40 | 
COc1ccc(F)cc1-c1cc(C#N)c(N(S(C)(=O)=O)S(C)(=O)=O)c2c1CCN(C)C2 [Compound 196, N-[7-Cyano-5-(5-fluoro-2-methoxy-phenyl)-2-methyl-1,2,3,4-tetrahydro-isoquinolin-8-yl]-dimethanesulfonamide] |  | < 25 | 
CCOC(=O)CNc1ccc(-c2ccccc2)c2c1CN(C)CC2 [Compound 204, (2-Methyl-5-phenyl-1,2,3,4-tetrahydro-isoquinolin-8-ylamino)-acetic acid ethyl ester] |  |  | > 50
COC(=O)CNc1ccc(-c2ccccc2)c2c1CN(C)CC2 [Compound 205, (2-Methyl-5-phenyl-1,2,3,4-tetrahydro-isoquinolin-8-ylamino)-acetic acid methyl ester] |  | 20 to 40 | 
CN1CCc2c(-c3ccccc3)cc(/C(N)=N/O)c(N)c2C1 [Compound 207] |  | > 50 | 
COc1ccc(F)cc1-c1cc(/C(N)=N/O)c(N)c2c1CCN(C)C2 [Compound 208] |  | 20 to 40 | 
COc1ccc(F)cc1-c1cc(C#N)c(N2C(=O)CCC2=O)c2c1CCN(C)C2 [Compound 211] |  | < 25 | 
CCN1CCc2c(-c3ccccc3)cc3[nH]c(=O)[nH]c3c2C1 [Compound 222] |  | < 25 | 
